Results as given in publication PMC8062851, “2-Methoxyestradiol and its derivatives inhibit store-operated Ca^2+ entry in T cells: Identification of a new and potent inhibitor” (Biochimica et Biophysica Acta. Molecular Cell Research, 2021).
Like-named read-outs stand apart in the source and are kept apart here.

Legend:
[1] = test system: SOCE in human Jurkat T cells; test: cells; format: cell-based; details: Ca2+ free/Ca2+ re-addition protocol, plateau 425-475 s after re-addition of 1 mM Ca2+
Experimental: Jurkat T-lymphocytes, primary human CD4^+ T cells and H1299 cells were pelleted at 450 ×g for 5 min, rat TMBP at 300 ×g for 8 min at room temperature and were resuspended in 1 ml of either standard JMP medium (Jurkat, H1299 and human CD4^+ T cells) or standard DMEM based medium containing 10% fetal bovine serum (FBS) (v/v) (TMBP cells). Resting TMBP cells (day 5–7 after re-stimulation) after the second to fifth re-stimulation were thawed from liquid nitrogen 12 to 40 h prior to Fura2-loading. After pre-incubation for 5 min at 37 °C, cells were incubated with 4 μM Fura2-AM for 15 min at 37 °C. After addition of the dye, cells were kept in the dark. Afterwards, cells and the dye were diluted by addition of 4 ml standard medium and incubated for another 15 min. Cells were washed twice in Ca^2+ buffer (140 mM NaCl, 5 mM KCl, 1 mM MgSO4, 1 mM CaCl2, 1 mM NaH2PO4, 20 mM HEPES, 5.5 mM glucose; pH 7.4 (NaOH), sterile filtered) and were diluted to a concentration of 2*10^6 cells/ml. Subsequently, cells were kept at room temperature for 20 min for de-esterification before the start of the first measurement.
In experiments using a Ca^2+ free/Ca^2+ re-addition protocol, cells were pelleted as described for Fura2 loading and Ca^2+ buffer was exchanged by 1 ml nominal Ca^2+ free buffer (140 mM NaCl, 5 mM KCl, 1 mM MgSO4, 1 mM NaH2PO4, 20 mM HEPES, 5.5 mM glucose; pH 7.4 (NaOH), sterile filtered) immediately before starting the measurement. The measurement was controlled by FL Solutions (Version 4.1, Hitachi High-Technologies Corporation). Fura2 was alternatively excited every 2 s at 340 ± 5 nm and 380 ± 5 nm, each 400 ms apart.
Finally, every measurement was calibrated using 0.1% (v/v) Triton X-100 to obtain a maximal ratio and 4 mM EGTA and 30 mM Tris to obtain a minimal ratio.
R is the ratio between F340 and F380. Rmin and Rmax are the minimal and maximal ratio, respectively, obtained by calibration. F380 min and F380 max are the minimal and maximal fluorescence intensity at 380 nm EX during the calibration. Finally, artefacts due to compound additions that usually could easily be identified and lasted about 8 s were deleted from the tracings using FL Solutions (Version 4.1, Hitachi High-Technologies Corporation). The fluorescence intensities of deleted data points were interpolated from those just before and after the deleted time points.
Estradiol, 2ME2 and 2ME2 derivatives were dissolved in DMSO at a concentration of 50 mM and stored at −20 °C for up to 6 months. For concentration-response curves, stock solution was freshly diluted with DMSO to obtain the same DMSO concentration of 0.2% (v/v) for all conditions.
The compound concentrations were then log transformed. Finally, the data were fitted to a corresponding nonlinear fit of variable slope using Prism 6 (GraphPad Software, USA).

SOCE in H1299 cells = test: SOCE inhibition, Ca2+ free/Ca2+ re-addition protocol in H1299 cells; format: cell-based, human; details: 10 μM
Experimental: Jurkat T-lymphocytes were cultured in RPMI 1640 medium containing 25 mM HEPES and GlutaMAX-1 (Gibco, Life Technologies), supplemented with 7.5% (v/v) newborn calf serum (NCS) (Biochrom, Merck Millipore), 100 U/ml penicillin and streptomycin (standard JMP medium). Cell density was kept between 0.3 and 1.2 ∗ 10^6 cells/ml. H1299 cells were cultured in DMEM (Dulbecco's modified Eagle's medium; Gibco, Life Technologies) supplemented with 10% (v/v) (FCS) (Biochrom, Merck Millipore), 4 mM L-glutamine, 100 μg/ml streptomycin, and 100 units/ml penicillin.
Jurkat T-lymphocytes, primary human CD4^+ T cells and H1299 cells were pelleted at 450 ×g for 5 min, rat TMBP at 300 ×g for 8 min at room temperature and were resuspended in 1 ml of either standard JMP medium (Jurkat, H1299 and human CD4^+ T cells) or standard DMEM based medium containing 10% fetal bovine serum (FBS) (v/v) (TMBP cells). […]
10^6 Jurkat T-lymphocytes, H1299 cells, TMBP cells or 4*10^6 primary human CD4^+ T cells were added into a 10 × 10 mm quartz glass cuvette (Hellma Analytics, Germany) that was placed into a fluorescence spectrophotometer (F-2710, Hitachi, Japan). […] Fluorescence intensity was measured at an emission wavelength of 495 ± 5 nm for both excitation wavelengths.

[2] = test system: Mn2+ entry into Jurkat T cells; test: Mn2+ quenching of Fura2 after store depletion in Jurkat T cells; format: cell-based, human; details: store depletion by thapsigargin, 10 μM
Experimental: Mn^2+ quenching of Fura2 was used to analyze influx of divalent cations into Jurkat T cells. Like for Ca^2+ measurements, 10^6 loaded Jurkat T-lymphocytes were pelleted and Ca^2+ buffer was exchanged for nominal Ca^2+ free buffer (see above). Instead of Ca^2+, Mn^2+ was added 1220 s after the start of the measurement. To investigate Mn^2+ quenching independently of any effects of Ca^2+, Fura2 was excited at its isosbestic point, which was experimentally determined to be 357 nm. The emission wavelength was set to 495 nm. In contrast to the Ca^2+ measurement experiments, these measurements were not calibrated.
For quantitative analysis, the velocity of quenching was calculated as the initial slope. After Mn^2+ addition, there was a very fast drop in Fura2 fluorescence in all experiments. This drop lasted for about 10 s and was probably due to quenching of extracellular Fura2. […]
y0 is the fluorescence at the start of the decay, P is the theoretical fluorescence at the end of the decay at infinite times, K is the rate constant, and x is the time. […]
The fluorescence before Mn^2+ addition was fitted to a straight line using the following equation:(4) y’=m·x+c
m is the slope, x is the time and c is the y-intercept. […] So the initial slope (si) after Mn^2+ addition was calculated using the following equation:(5) si=(y0–P)*(-K)*e(-K*1230s)–m

## CCc1cc2c(cc1OS(N)(=O)=O)CC[C@@H]1[C@@H]2CC[C@]2(C)[C@@H](CC#N)CC[C@@H]12 [STX564, 2-ethyl-3-sulfamoyloxy-17β-cyanomethylestra-1,3,5(10)-triene]
[1]; Homo sapiens, Jurkat, read-out: IC50 of SOCE inhibition, Jurkat T cells
  IC50: 1200 nM
[1]; read-out: IC50 of SOCE inhibition, Jurkat T cells
  IC50: ~1000 nM
SOCE in H1299 cells
  SOCE inhibition: significantly inhibited
[2]
  antagonism of Mn2+ entry (Mn2+ quenching of Fura2): almost fully
